The term GI50 denotes the concentration giving 50% growth inhibition. A word on the TGI: it is the concentration giving total growth inhibition. Lower therefore signals greater sensitivity of the cells.

Test systems include PC-3 prostate; XF 498 CNS; DLD-1 colon; M19-MEL melanoma; DMS 114 small cell lung; HS 578T breast; KM20L2 colon; RXF-631 renal; MCF7 breast; DU-145 prostate; T-47D breast; MDA-MB-435.
Holding throughout (experiment): DTP human tumour cell line panel, 48 h

Where “and” joins values, the source holds several entries; their conditions need not be identical. Equal values may be shown once.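 Interpolation was linear, between the two tested concentrations surrounding the appropriate level; five concentrations were tested over 48 hours in 96-well plates. The concentration for 50% growth inhibition is given as GI50. The concentration for full growth arrest is given as TGI.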

Consider `COC(=O)Nc1nc2ccc(C(=O)c3cccs3)cc2[nH]1`, for which the GI50 in the assay on PC-3 prostate is 0.246 µM; with HS 578T breast, 0.0244 µM and 0.0882 µM; in the assay on MCF7 breast it was 0.0618 µM; in the assay with T-47D breast it was over 100 µM; with MDA-MB-435 it was 0.029 µM. For the same molecule, the TGI in the assay on PC-3 prostate was 14.2 µM and > 100 µM; in the assay with XF 498 CNS it was 0.0934 µM; in the assay with DLD-1 colon, over 100 µM; with M19-MEL melanoma, over 100 µM; in the assay on DMS 114 small cell lung, over 100 µM; with HS 578T breast it was 50.9 µM and > 100 µM. Further, the TGI in the assay with KM20L2 colon was 0.0377 µM; with RXF-631 renal, over 61.8 µM; with MCF7 breast, 46.2 µM and > 100 µM; in the assay on DU-145 prostate, 1.5 µM; with T-47D breast, over 100 µM; with MDA-MB-435, 0.158 µM and 0.102 µM.
As for `CC/C(C)=C1\CCC(CN(C)C)C1=O` (stereo not drawn), the TGI was 34.7 µM in the assay with XF 498 CNS; 30.5 µM in the assay with DLD-1 colon; 32.6 µM in the assay with M19-MEL melanoma; 41.8 µM in the assay with DMS 114 small cell lung; 47.5 µM in the assay on KM20L2 colon; 34.4 µM in the assay with RXF-631 renal.

For the origin of these results see PubChem BioAssay (NCI).
